These results are taken from patent US6492344B1, “Syndecan enhancer element and syndecan stimulation of cellular differentiation” (Biotie Therapies Corp., priority 1993, dated 2002).

Experiment [1] has as its system FGF-inducible Response Element (FiRE). Nature of the experiment: FiRE CAT assay with AP-1 activating agents in stable 3T3NIH cells. The format is cell-based, mouse. Conditions: minimal promoter, agents known to activate AP-1. Here is the method: FIG. 24. […] Different agents known to induce fos-jun complexes and activate AP-1 driven promoters, were tested for FiRE activation in CAT assay with the minimal promoter transferred in stable 3T3NIH cells in the presence of protein kinase C activator (TPA, 10 mm), protein phosphatase 1 and 2 inhibitors (DA and calycalin A), a cAMP activator (forskolin), or a tyrosine phosphatase inhibitor (orthovanadate).
Agents Activating AP-1 Are Not Sufficient for FiRE Activation. Since FiRE contains AP-1 transcription factors, whose activation is well characterized, we tested chemicals known to cause AP-1 dependent gene activation. These included the protein kinase C (PKC) activator 12-O-tetradecanoylphorpol-13-acetate (TPA), protein-phosphate-1 and -2 inhibitors okadaic acid and calyculin A, cAMP activator forskolin and tyrosine kinase phosphatase inhibitor orthovanadate (FIG. 24a).

In experiment [2] the test system is syndecan-1 expression in MCF-7 cells. The experiment can be described thus: Syndecan mRNA expression in MCF-7 cells under estrogen and toremifene. The format is cell-based, human. Conditions: MCF-7 cells exposed to estrogen, then anti-estrogen treatment. Here is the method:
(§1) The steroid-responsive human breast cancer cell line MCF-7 was used to study the expression of human syndecan under different growth conditions regulated by estrogen and anti-estrogen. Cells were plated at a density of 1.2×10^6 cells/100 mm of plastic culture dish and grown as monolayer cultures in 10 ml per dish of phenol red-free DMEM medium with 5% dextran/charcoal treated fetal calf serum (DS-FCS), 2 mM L-glutamine and 3 μg/ml insulin. […] The cells were cultured for 6 days, and the media were changed every second day. For RNA extraction, cells were washed in situ with PBS and scraped from the plates in 4 M guanidine isothiocyanate.

The test system of another experiment is MCF-7 cells. The experiment can be described thus: Growth behavior of MCF-7 cells under estrogen and toremifene. The format is cell-based, human. Conditions: MCF-7 cells exposed to estrogen, then toremifene. Here is the method:
as §1

Experiment [3] relates to FGF-inducible Response Element (FiRE). The experiment can be described thus: pFiRE CAT reporter activation by growth factors in 3T3NIH cells. The format is cell-based, mouse. Conditions: pFiRE transfected 3T3NIH cells; 10 ng/ml growth factor (2 ng/ml TGF-β) or 5% FCS, 2 days. Here is the method: Each of these plasmids was transiently transfected into 3T3NIH cells, using the calcium phosphate precipitation method (Chen and Okayama, Mol. Cell Biol. 7:2745-2752 (1987)) as follows. For transient transfections NIH3T3 cells were plated at equal density on six-well plates (Falcon) two days before transfection. Plasmid DNA was transfected into cells by calcium phosphate method (Chen and Okayama, Mol. Cell Biol. 7:2745-2752 (1987)). A β-galactosidase expressing plasmid (pSV-β-galactosidase, Promega) was co-transfected with CAT constructs to monitor transfection efficiencies. Three parallel transfections were used in every assay. Directly after transfection growth factors were added, media change the next day and cells were harvested after two days. CAT activities were measured by liquid scintillation and β-galactosidase activities spectrophotometrically at 420 nm as described by Vihinen et al., J. Biol. Chem 268:17261-17269 (1993)). As a control, other samples of the cells transfected with each plasmid were treated with buffer without FGF-2 for the same time periods.
For the gene expression analysis the fragments of the syndecan-1 upstream region were subcloned from mouse genomic clones into the XbaI site of the pCATProm vector in which a mouse syndecan-1 promoter region (−1310 to +140) was fused to the CAT reporter gene (Vihinen et al., J. Biol. Chem. 271:12532-12541 (1996)). The pX-HIIICAT plasmid was prepared by cloning HindIII-XhoI promoter fragment (−2400 to +140 bp) into the promoterless pCAT basic vector (Promega). For pXSp1 and 2 plasmids, SphI fragments −11.4 to −10.5 kb and −10.5 to −9.4 kb, respectively) were deleted from pXb6CAT (−11.6 to −9.4 kb). Constructs pXS2, pXB3 and pXX1 were generated by ligating SphI-EarI/blunt (−10.5 to −10.1 kb), EarI/blunt fragment (−10.1 to −9.8 kb) and EarI/blunt-XbaI (−9.8 to −9.4 kb) from pXSpI into SphI-AccI/blunt, AccI/blunt or XbaI-SphIlblunt sites, respectively, into the pCATProm vector. Blunt ended fragments were made by T4 polymerase (Promega). For FiRE and FiREREV a PstI-StyI/blunt fragment was subcloned into PstI-EcoRV or PstI-SmaI sites of the pBluescript vector and then transfected to Xba-SphI sites in pCATProm vector. These constructs were then used to transient transfect NIH3T3 cells as described supra, and CAT activity was measured.
Effect of Various Growth Factors on Enhancer Activation in NIH3T3 Cells. Plasmid pFiRE was transfected into 3T3NIH cells as described, supra. The cells were starved in DMEM medium supplemented with 5% fetal calf serum to about 70% confluence. Fetal calf serum was then replaced with 2% carboxy-methyl-Sephadex eluted fetal calf serum (CMS) 12 hrs before adding the growth factors. Various growth factors in the same medium, 5% fetal calf serum (FCS) supplemented medium or a control containing the medium, without any added growth factors were incubated with the transfected cells for 2 days, and CAT activity was measured. The effect of 10 ng/ml of FGF-2, FGF-1, FGF-4, FGF-7 (KGF), EGF, IGF1, TGFα, IFNγ, and PDGF and 2 ng/ml TGF-β were tested. The human recombinant growth factors were purchased from Peprotech (FGF-1, -2, and -7), Boehringer (FGF-2) or from Calbiochem (PDGF) TGF-β was purchased from Sigma. The effect of the added growth factors and FCS on DNA synthesis was also tested by a 125-IdU incorporation assay. […] Radioactivity was measured using a gamma counter (Wallac).

The test system of another experiment is 3T3NIH cells. Nature of the experiment: 125-IdU incorporation (DNA synthesis) assay in 3T3NIH cells. The format is cell-based, mouse. Conditions: pFiRE transfected 3T3NIH cells; 10 ng/ml growth factor (2 ng/ml TGF-β) or 5% FCS. The text has this:
Effect of Various Growth Factors on Enhancer Activation in NIH3T3 Cells. Plasmid pFiRE was transfected into 3T3NIH cells as described, supra. The cells were starved in DMEM medium supplemented with 5% fetal calf serum to about 70% confluence. Fetal calf serum was then replaced with 2% carboxy-methyl-Sephadex eluted fetal calf serum (CMS) 12 hrs before adding the growth factors. Various growth factors in the same medium, 5% fetal calf serum (FCS) supplemented medium or a control containing the medium, without any added growth factors were incubated with the transfected cells for 2 days, and CAT activity was measured. The effect of 10 ng/ml of FGF-2, FGF-1, FGF-4, FGF-7 (KGF), EGF, IGF1, TGFα, IFNγ, and PDGF and 2 ng/ml TGF-β were tested. The human recombinant growth factors were purchased from Peprotech (FGF-1, -2, and -7), Boehringer (FGF-2) or from Calbiochem (PDGF) TGF-β was purchased from Sigma. The effect of the added growth factors and FCS on DNA synthesis was also tested by a 125-IdU incorporation assay. This cell proliferation assay was carried out by incubating cells for 4-6 hrs with 0.25 μCi/ml 5-[^125I]iodo-2′-deoxyuridine (IdU, Amersham), washed several times with PBS and solubilized in 1 M NaOH. Radioactivity was measured using a gamma counter (Wallac).

For experiment [4], the system named is FGF-inducible Response Element (FiRE). The experiment can be described thus: FiRE / Syn Prom CAT reporter in MCA3D keratinocytes. The format is cell-based. Conditions: MCA3D mouse keratinocytes transfected with FiRE construct. As to the method:
The cells used for proximal promoter constructs were 3T3 NIH, S115 (either hormone-treated or not) and nMuMG cells. For enhancer constructs we used 3T3 NIH cells grown in 2% CMS medium and MCA 3D cells grown in Ham's medium. 3T3 NIH cells were also used to test the effect of growth factors in 2% CMS medium with 10 ng/ml FGF-2 and 2ng/ml TGFβ-1. MCA 3D cells were used to test the effect of 10 ng/ml KGF.
FiRE is Induced Selectively by FGF-7 in Keratinocytes. The ability of FiRE to enhance transcription was tested in the mouse keratinocyte cell line MCA3D (Kuliz-Martin et al., Carcinogenesis 4:1367-1377 (1983)). MCA3D cells were transfected as described supra for mouse NIH3T3 cells. Following transfection, the cells were treated with fetal calf serum, PDGF, FGF-1, FGF-2, and FGF-7 as described supra for the NIH3T3 cells.

The subject of the next experiment is syndecan-1 gene. Nature of the experiment: Syndecan-1 mRNA quantification in 3T3NIH cells exposed to FGF-2. The experiment is classed as cell-based, mouse. Conditions: TGF-β alone. The text has this:
Northern Blot—RNA was isolated from 3T3 and NMuMG cells using 4 M guanidine isothiocyanate and CsCl density centrifugation (Chirgwin et al., Biochemistry 18:5294-5299 (1979)). RNA samples were size-separated on a 1% agarose formaldehyde gel, transferred to a GeneScreen Plus™ membrane (New England Nuclear) and hybridized with a multi-prime (Amersham) labeled partial cDNA clone for mouse syndecan (PM-4) (Saunders et al., J. Cell Biol. 108:1547-1556 (1989)). After hybridization, the membrane was washed in 2×SSC and 1.0% SDS at 65° C. (high stringency conditions). For rehybridization with glyceraldehyde-3-phosphate-dehydrogenase (GAPDH; Fort et al., Nucleic Acid Res. 13:1431-1442 (1985)), the bound PM-4 probe was removed as recommended by the manufacturer of the filter (NEN).
Following incubation with FGF-2, syndecan MRNA was isolated and quantified. Control incubations without FGF-2 were also performed. Syndecan mRNA was isolated and quantified […] FGF-2 treatment following 6, 12, and 24 hr incubations. The quantification of syndecan mRNA production can be seen in FIG. 11a. GAPDH mRNA was used as a loading control. […] The enhancement appears to be maximal at about 6 hrs of FGF-2 incubation, and decreases thereafter. In the Figure, two individual exposures for each time point are presented.

Entries after “also recorded” stand apart in the source; their conditions may differ.

For the compound `CCCCCCCCCCCCCC(=O)O[C@@H]1[C@@H](C)[C@@]2(O)[C@@H](C=C(CO)C[C@]3(O)C(=O)C(C)=C[C@@H]23)[C@H]2C(C)(C)[C@]12OC(C)=O` [TPA, 12-O-tetradecanoylphorpol-13-acetate], the “FiRE activation (CAT assay)” value in experiment [1] is “none of the other compounds known to induce immediate early genes fos and jun and AP-1 driven promoters, were able to activate FiRE; also recorded: do not activate”. Same read-out and setting: as for `COC[C@@H]([C@H](O)[C@H](O)C(=O)NCC[C@H](C)c1nc(/C=C/C[C@@H]2O[C@]3(C[C@@H](O)[C@@H]2C)O[C@H]([C@H](C[C@H](O)[C@H](C)[C@H](O)[C@H](C)/C=C(C)/C(C)=C/C=C/C(C)=C\C#N)OC)[C@H](OP(=O)(O)O)C3(C)C)co1)N(C)C` [calyculin A], the entry is “none of the other compounds known to induce immediate early genes fos and jun and AP-1 driven promoters, were able to activate FiRE”; as for `C=C1[C@@H](O)[C@@H]2O[C@]3(CC[C@H](/C=C/[C@@H](C)[C@@H]4CC(C)=C[C@@]5(O[C@H](C[C@@](C)(O)C(=O)O)CC[C@H]5O)O4)O3)CC[C@H]2O[C@@H]1[C@@H](O)C[C@H](C)[C@H]1O[C@@]2(CCCCO2)CC[C@H]1C` [okadaic acid], “none of the other compounds known to induce immediate early genes fos and jun and AP-1 driven promoters, were able to activate FiRE”. On the same count and under the same terms, the entry for `[O]=[V]([O-])([O-])[O-]` [orthovanadate] is “resulted in activation of FiRE”. `CN(C)CCOc1ccc(/C(=C(/CCCl)c2ccccc2)c2ccccc2)cc1` [toremifene]: in experiment [2], the syndecan-1 expression result was “reverse their lowered syndecan expression; also recorded: restored syndecan-1 expression to levels close to that found in cells not exposed to estrogen”. Besides, in the experiment with MCF-7 cells, the “growth behavior of cells” value was “aided the cells in maintaining their normal growth behavior”. Regarding “EGF: epidermal growth factor (NSDSECPLSHDGYCLHDGVCMYIEALDKYACNCVVGYIGERCQYRDLKWWELR; Epidermal growth factor; UniProt P01133 971-1023, looked up)”, in experiment [3], the “FiRE enhancer activation (CAT reporter activity)” value (from here on “FiRE enhancer activation”) is “no significant enhancer activation; also recorded: no effect on enhancer activity”. In the experiment with 3T3NIH cells, the “DNA synthesis / cell proliferation (125-IdU incorporation)” value (shortened to “DNA synthesis / cell proliferation”) is “significant increase in DNA synthesis; also recorded: enhanced cell proliferation to a similar extent as FGF-2”. As to “FGF-1: human recombinant growth factor, FGF family member”, the “FiRE enhancer activation” value in experiment [3] is reported as “did not activate or suppress; also recorded: lower effect”. Besides, the “DNA synthesis / cell proliferation” value with 3T3NIH cells is on record as “significant increase in DNA synthesis”. The FiRE activation result in experiment [4] was “failed to activate FiRE; also recorded: did not activate FiRE”. Take “IGF: growth factor IGF1 tested at 10 ng/ml”: the “FiRE enhancer activation” value in experiment [3] is given as “no effect on enhancer activity”. In addition, the “DNA synthesis / cell proliferation” value in the experiment with 3T3NIH cells is on record as “enhanced cell proliferation to a similar extent as FGF-2”.

Turning to PDGF, the “FiRE enhancer activation” value in experiment [3] is given as “no significant enhancer activation; also recorded: no effect on enhancer activity”. In addition, the “DNA synthesis / cell proliferation” value in the experiment with 3T3NIH cells was “significant increase in DNA synthesis; also recorded: enhanced cell proliferation to a similar extent as FGF-2”. In addition, the FiRE activation entry in experiment [4] was “failed to activate FiRE; also recorded: did not activate FiRE”. With “TGF-β: transforming growth factor beta; porcine TGFβ1”, the “activation of the syndecan-1 gene” value in the experiment on syndecan-1 gene is given as “cannot activate the syndecan-1 gene”. For the same compound, the “FiRE enhancer activation” value in experiment [3] is given as “no significant enhancer activation”. Further, in the experiment on 3T3NIH cells, the “DNA synthesis / cell proliferation” value was “significant increase in DNA synthesis”.
